{
  "source": "patent US20220023358A1",
  "about": "“COMBINATION THERAPIES OF MICROORGANISMS AND IMMUNE MODULATORS FOR USE IN TREATING CANCER” (Synlogic Operating Company, Inc., priority 2018, published 2022)",
  "molecules": {"B1": {"name": "PEGPH20: PEGylated form of rHuPH20, a hyaluronidase (protein, UniProt P38567 36-490, looked up)", "Hyaluronidase PH-20": "LNFRAPPVIPNVPFLWAWNAPSEFCLGKFDEPLDMSLFSFIGSPRINATGQGVTIFYVDRLGYYPYIDSITGVTVNGGIPQKISLQDHLDKAKKDITFYMPVDNLGMAVIDWEEWRPTWARNWKPKDVYKNRSIELVQQQNVQLSLTEATEKAKQEFEKAGKDFLVETIKLGKLLRPNHLWGYYLFPDCYNHHYKKPGYNGSCFNVEIKRNDDLSWLWNESTALYPSIYLNTQQSPVAATLYVRNRVREAIRVSKIPDAKSPLPVFAYTRIVFTDQVLKFLSQDELVYTFGETVALGASGIVIWGTLSIMRSMKSCLLLDNYMETILNPYIINVTLAAKMCSQVLCQEQGVCIRKNWNSSDYLHLNPDNFAIQLEKGGKFTVRGKPTLEDLEQFSEKFYCSCYSTLSCKEKADVKDTDAVDVCIADGVCIDAFLKPPMETEEPQIFYNASPSTLS", "modifications": "PEG", "notes": "PEGylated form of rHuPH20, a hyaluronidase"}},
  "key": {"[1]": {"test_system": "NK cells", "conditions": "first-in-human clinical trial; cited from earlier work"}, "[2]": {"test_system": "RAW 264.7 macrophages or WT BMDCs", "test": "Cytokine mRNA in RAW 264.7 macrophages or WT BMDCs, with or without Cytochalasin D", "format": "cell-based, murine", "protocol": "(§1) In indicated groups cells were pre-treated with for lh with Cytochalasin D (10 μM). Macrophages or BMDCs incubated in media alone served as a negative control. Cells were analyzed for the upregulation of Ifnbl and 116 mRNA (FIGS. 7D-7G). WT, TLR4^−/− and STING-^−/− BMDCs were treated with Control EcN (MOI: 25), pre-induced SYN1891 (MOI: 25), LPS (100 ng/mL), or smSTING agonist (5 μg/mL) for 4 hours. Cells were analyzed for the upregulation of Ifnb1, Il6 and Il12a mRNA (FIGS. 7H-7J). Data are representative of two or more independent experiments with mean and standard deviation shown. **P<0.005; ***P<0.0005; ****P<0.00001; two-tailed unpaired Student's t-test comparing the indicated groups.\nTo evaluate the mechanism of action of SYNB1891 in the induction of type I IFNs, bacterial phagocytosis was blocked using cytochalasin D. Cytochalasin D inhibits actin polymerization and prevents phagocytosis, yet it has minimal effect on endocytosis/pinocytosis of soluble small molecules. […] Therefore, phagocytosis of SYNB1891 is required for intracellular CDA release and STING activation in target cells, providing a natural mechanism for preferential activation of APCs in the tumor."}, "[3]": {"test_system": "WT, TLR4−/− and STING−/− BMDCs", "test": "Cytokine mRNA in WT, TLR4−/− and STING−/− BMDCs", "format": "cell-based, murine", "conditions": "4 hours", "protocol": "as §1\nLPS is an integral component of the outer membrane of Gram-negative bacteria and as such LPS recognition by TLR4 plays an important role in the induction of immune responses by these microbes."}, "[4]": {"test_system": "Hyaluronan or Hyaluronic acid (HA)", "conditions": "mouse PDA tumors; cited from earlier work"}},
  "data": [
    {"molecule": "recombinant human IL-15: recombinant human IL-15 cytokine", "values": [
      {"measurement": "Expansion of NK cells", "setting": "[1]", "result": 10, "unit": "fold"}
    ]},
    {"molecule": "Nc1ncnc2c1ncn2[C@@H]1O[C@@H]2COP(O)(=S)O[C@@H]3C(O)[C@@H](COP(O)(=S)O[C@H]2[C@H]1O)O[C@H]3n1cnc2c(N)ncnc21", "note": "(stereo partly drawn) [smSTING agonist, 2′3′-c-di-AM(PS)2 (Rp,Rp)]", "values": [
      {"measurement": "Cytokines expressed", "setting": "[2]; 4 hours, 5 μg/mL", "result": "led only to IFNβ1 expression"},
      {"measurement": "IFNβ1 induction, effect of Cytochalasin D", "setting": "[2]; Cytochalasin D pre-treatment", "result": "did not affect"},
      {"measurement": "IFNβ1 expression in STING−/− BMDCs", "setting": "[3]; STING−/− BMDCs", "result": "completely abrogated"},
      {"measurement": "IFNβ1 expression in TLR4−/− BMDCs", "setting": "[3]; TLR4−/− BMDCs", "result": "preserved"}
    ]},
    {"molecule": "B1", "values": [
      {"measurement": "Interstitial fluid pressure after treatment", "setting": "[4]", "result": "20-30 mmHg"}
    ]}
  ]
}
